Test results from patent US12612375B2, “Antimicrobial and anticancer agents” (Persevere Therapeutics Inc., priority 2021, dated 2026).

Columns and labels:
Escherichia coli = assay: Agar diffusion test Escherichia coli; format: cell-based; details: for Inhibition Zone: Escherichia coli (ATCC 8739), gram-negative
Source text: (§1) Different gram-negative and gram-positive bacteria are used for testing the compounds of the present disclosure: Staphylococcus aureus and Escherichia coli (ATCC-LGC Standards GmbH, Wesel, Germany); Enterococcus faecilis, Enterococcus faecilum, Staphylococcus aureus, Clostridium difficile, Acineobacter baumannii, Pseudomonas aeruginosa, Stenotrophomonas maltophilia, Citrobacter freundii, Escherichia coli, Klebsiella pneomoniae, Morganelle morganii, Bactroides fragilis, Helicobacter pylori (fresh clinical isolates). All isolates are cultured with Müller-Hinton-Agar excluding Bacteroides fragilis and Helcobacter pylori. Bacteroides fragilis is cultured with Müller-Hinton-Agar containing 5% Horseblood and 20 mg/l ß-NAD. Helicobacter pylori is cultured with Chocolat PolyViteX-Agar.
(§2) The antibacterial potential of compounds is examined by the Kirby-Bauer disc diffusion test using Müller-Hington agar. A 10 mm diameter disk soaked in 150 μl of distilled water containing 10 mg of the test substance was placed on Müller-Hington agar (bioMeieux, Geneve, Switzerland) holding a pre-lawn of the according test bacteria. The plates are incubated at 37° C. for 24 hours and the zone of inhibition is recorded. Culture media and sterilized distilled water were used as a control. N-acetylcysteine (NAC) is used as an anti-oxidant control.

[1] = test system: Staphylococcus aureus (MRSA); assay: Agar diffusion test Staphylococcus aureus (MRSA); format: cell-based; details: for Inhibition Zone: Staphylococcus aureus (MRSA Nr. 2065), gram-positive
Source text: as §1, §2

Enterococcus faecium = assay: Agar diffusion test Enterococcus faecium; format: cell-based; details: 10 mm disk with 10 mg test substance, 37° C., 24 hours
Source text: as §1, §2

MDA MB 468 cells = assay: Cell migration assay (scratch of confluent monolayer); format: cell-based, human; details: 2 to 5 days, compared to untreated control, semi-quantified (FIG. 1)
Experimental: Cells are plated into the 60-mm dishes to create a confluent monolayer and are incubated for 24 hours allowing cells to adhere and spread. The required number of cells for a confluent monolayer depends on the particular cell type. After creating a scratch of the cell monolayer, the gaparea is examined by phase-contrast-microscopy. Images are captured at the beginning and at regular intervals during cell migration (48, 72, and 120 hours (5 d)) closing the scratch, to semi-quantify the migration rate of the cells.
Cell migration assay: cell migration of compounds 2289, 2244, 2287, 2255, 2256 compared to non-treated control (NK) and positive control (compound 2250). Comparative compounds 2244, 2287, 2255, 2256 have the following structures:
Using cell migration assays, the migration rate of different cancer cell entities under treatment with 2289, negative control and positive control (2250) was semi-quantified.

[2] = test system: MDA MB 468, HT29, MCC 14.2, Panc TuI; assay: MTT assay for cell viability, all tested cancer cell lines (Example 2); format: cell-based, human; details: FIG. 2
Experimental: (§3) Cells are seeded individually to obtain a sub confluent monolayer in a 96 well plate format and are incubated for 24 hours prior treatment. To examine a dose response regarding the antineoplastic activity cells are incubated with increasing concentrations (100, 200, 500, 1000, 1500, 2000 μmol/l) of all different Oxathiazinane derivatives and ddH2O as control for 24 and 48 hours. After the exposition time 10 μl MTT (3-(4,5-Dimethylthiazol-2-yl)-2,5-diphenyltetrazoliumbromid) reagent (5 mg/ml) is added and incubated for 2 hours before violet Formazan crystals are dissolved in 100 μl DMSO (Dimethylsulfoxide). Viability of the cells can be analyzed by using a microplate absorbance reader by measuring the OD560 (ASYS, UVM340, Anthos Mikrosystheme GmbH, Germany). The assay is performed using 8 replicates in three independent experiments with consecutive passages.
(§4) Anti-neoplastic activity of compounds 2289, 2293, and 2296 was determined according to the MTT assay and BrdU assay described above.

[3] = test system: all tested cancer cell lines (MDA MB 468 highest, MCC 14.2 lowest response); assay: BrdU assay for cell proliferation, all tested cancer cell lines (Example 2); format: cell-based, human; details: FIG. 3
Experimental: Cells are seeded individually to obtain a sub confluent monolayer in a 96 well plate format and are incubated for 24 hours prior to treatment. To examine the dose response regarding their anti-proliferative activity, cells are incubated with increasing concentrations (100, 200, 500, 1000, 1500 and 2000 μmol/l) of all different Oxathiazinane derivates and ddH2O as control for 6 h prior BrdU proliferation assay (5-bromo-2-deoxyuridine)-ELISA (Roche Applied Science, Mannheim, Germany) according to the manufacturer's instructions. […] The amount of synthesized DNA is detected using a microplate absorbance reader measuring at 370 nm with a reference wavelength of 492 nm (ASYS, UVM340, Anthos Mikrosysteme GmbH, Krefeld, Germany). BrdU assays are performed with 8 replicates of three independent experiments with consecutive passages.
as §4

Enterococcus faecalis = assay: Agar diffusion test Enterococcus faecalis; format: cell-based; details: 10 mm disk with 10 mg test substance, 37° C., 24 hours
Source text: as §1, §2

[4] = previously reported; cited from earlier work
AsPc1 cells = assay: MTT cytotoxicity assay AsPc1; format: cell-based; details: AsPc1, after 24 h, compared to untreated control (NC), t-test
Experimental: as §3
A MTT Cytotoxicity assay of the cell line AsPc1 with different oxathiazine derivatives was performed.

[5] = test system: Staphylococcus aureus (ATCC 6538); assay: Agar diffusion test Staphylococcus aureus (ATCC 6538); format: cell-based; details: gram-positive
Source text: as §1, §2

[6] = Human fresh blood stability / half-life at 37° C. in vitro; format: in vitro ADME; details: for human blood stability profile compared to 2250: K2-EDTA human blood; for half-life compared to the half-life of taurolidine / half-life at 256 μM: human; for half-life at 256 μM: blood
Experimental: The half-life of each of compounds 2289, 2293, and 2296 in human fresh blood was measured at 37° C. in vitro. For 2289 and 2293 into 2250, K2-EDTA human blood was spiked with 2289 or 2293 at 256 μM; 2250 at 26 μM and 2244 at 26 μM (n=1). The pool remained at 37° C. for 20-25 min and then an aliquot was centrifuged (2500 g for at least 5 minutes at 4° C.). After centrifugation the human plasma was collected and immediately frozen at −80° C. This aliquot corresponded to the T0. The remaining pool was aliquoted and kept at 37° C. An aliquot was collected, centrifuged (2500 g for at least 5 minutes at 4° C.) and the recovered plasma was frozen at −80° C. after at least 0.25, 0.5, 1, 6, 8, 24 and 48 hours. Stability was determined by measuring the 2289 and 2293 peak area at each time point compared to T0. For 2296 into its metabolite 1-hydoxypropane-2-sulfonamide, K2-EDTA human blood was spiked with 2296 at 256 μM and 1-hydroxypropane-2-sulfonamide at 26 μM (n=1). The pool remained at 37° C. for 20-25 min and then an aliquot was centrifuged (2500 g for at least 5 minutes at 4° C.). After centrifugation the human plasma was collected and immediately frozen at −80° C. This aliquot corresponded to the TO. The remaining pool was aliquoted and kept at 37° C. An aliquot was collected, centrifuged (2500 g for at least 5 minutes at 4° C.) and the recovered plasma frozen at −80° C. after at least 0.5, 1, 3, 6, 8 and 24 hours/ Stability was determined by measuring 2296 peak area at each time point compared to T0.

Solubility in water = format: physicochemical; details: at room temperature
Experimental: Re-crystallization with, e.g., • Ethanol • Ethyl acetate • Ethyl acetate/light petroleum Physical Properties • Melting range: 79-83° C. • Solubility in water: about 1.5% at room temperature • Melting range: 52-53° C. • Solubility in water: <1.5% at room temperature • Melting range: 74-75° C. • Solubility in water: min. 1% at room temperature

tumor stem cells = assay: Killing tumor stem cells in tissue culture in vitro; format: cell-based
Experimental: In some embodiments, the taurolidine, taurultam, or a mixture thereof is administered in a tumor stem cell killing composition at a concentration of about 0.01 to about 500 μg/ml. In some embodiments, the taurolidine, taurultam, or a mixture thereof is administered in a tumor stem cell killing composition at a concentration of about 0.1 to about 100 μg/ml. In some embodiments, the taurolidine, taurultam, or a mixture thereof is administered in a tumor stem cell killing effective composition at a concentration of about 10 to about 50 μg/ml. Taurolidine is effective at killing tumor stem cells in tissue culture in vitro at 0.01 μg/ml.

[7] = Human fresh blood stability / half-life at 37° C. in vitro; format: in vitro ADME; details: 2296 into 1-hydroxypropane-2-sulfonamide, human blood 37° C., 256 μM, Time 48 h
[8] = Escherichia coli, 10 mm disk with 10 mg test substance, 37° C., 24 hours
[9] = Staphylococcus aureus (MRSA), 10 mm disk with 10 mg test substance, 37° C., 24 hours
[10] = 2289 or 2293 spiked at 256 μM into K2-EDTA human blood, 37° C., Time 0 h (T0, after 20-25 min at 37° C.)

| SMILES | zone of inhibition at 10000 µg/disc (Escherichia coli; [8]) [mm] | zone of inhibition at 10000 µg/disc [1, 9] [mm] | Inhibition Zone (Escherichia coli) [mm] | Inhibition Zone [5] [mm] | human blood stability profile compared to 2250 ([6]; 37° C.) | half-life compared to the half-life of taurolidine [6] | half-life at 256 μM [6] [h] | Solubility in water (Solubility in water) | further results |
| --- | --- | --- | --- | --- | --- | --- | --- | --- | --- |
| CC1NS(=O)(=O)CCO1 (centres unmarked) [Compound 2256] | < 10 | < 10 |  |  |  |  |  |  |  |
| NS(=O)(=O)CCO [Compound 2244] | < 10 |  |  |  |  |  |  |  | zone of inhibition at 10000 µg/disc (Enterococcus faecium): < 10 mm |
| O=S1(=O)CCOCN1 [Compound 2250] |  |  |  |  |  |  |  |  | migration rate (MDA MB 468 cells): clearly inhibited; reduction of living cells (cell viability, MTT) [2]: significant reduction of living cells; reduction of proliferating cells (BrdU) [3]: significant reduction of proliferating cells; Zone of inhibition (Escherichia coli; [8]): 24.5 mm; Zone of inhibition [1, 9]: 49.5 mm; Zone of inhibition (Enterococcus faecalis): 42.5 mm); half-life compared to taurolidine [4]: significantly longer half-life |
| CCC(=O)N1COCCS1(=O)=O [Compound 2293] |  |  | 19.5 | 31.5 | very similar profile | significantly higher | 5 to 6 | < 1.5% | concentration from which a significant impact on cell viability is shown (AsPc1 cells): ≥ 500 µM; Inhibition Zone [1]: 32.5 mm; % Stability [6, 10]: Not stable- |
| CC1OCCS(=O)(=O)N1C (centres unmarked) [Compound 2287] | < 10 | < 10 |  |  |  |  |  |  |  |
| O=S1(=O)CCN(CN2CCS(=O)(=O)NC2)CN1 [taurolidine] |  |  |  |  |  |  |  |  | concentration effective at killing tumor stem cells (tumor stem cells): 0.01 µg/mL; half-life [4]: about 30 minutes |
| CC1COCNS1(=O)=O (centres unmarked) [Compound 2296] |  |  | 23.0 | 38.0 | very similar profile | significantly higher | 5 to 6 | ≥ 1% | Inhibition Zone [1]: 43.0 mm; % Stability ([6]; 2296 into 1-hydroxypropane-2-sulfonamide, human blood 37° C., 256 μM, Time 0 h): 100%; % Stability ([6]; 2296 into 1-hydroxypropane-2-sulfonamide, human blood 37° C., 256 μM, Time 0.5 h): 97%; % Stability ([6]; 2296 into 1-hydroxypropane-2-sulfonamide, human blood 37° C., 256 μM, Time 1 h): 92%; % Stability ([6]; 2296 into 1-hydroxypropane-2-sulfonamide, human blood 37° C., 256 μM, Time 3 h): 71%; % Stability ([6]; 2296 into 1-hydroxypropane-2-sulfonamide, human blood 37° C., 256 μM, Time 6 h): 52%; % Stability ([6]; 2296 into 1-hydroxypropane-2-sulfonamide, human blood 37° C., 256 μM, Time 8 h): 42%; % Stability ([6]; 2296 into 1-hydroxypropane-2-sulfonamide, human blood 37° C., 256 μM, Time 24 h): 7%; % Stability [7]: 1% |
| CN1COCCS1(=O)=O [Compound 2255] | < 10 | < 10 |  |  |  |  |  |  |  |
| CC(=O)N1COCCS1(=O)=O [Compound 2289] | 18.5 | 27.5 | 18.5 | 27.5 | very similar profile | significantly higher | 5 to 6 | about 1.5% | migration rate (MDA MB 468 cells): lower migration rate; reduction of living cells (cell viability, MTT) [2]: significant reduction of living cells; reduction of proliferating cells (BrdU) [3]: significant reduction of proliferating cells; % Stability [6, 10]: Not stable- |
